# US10167276B2, “Compounds and methods for inhibiting JAK” (Dizal (Jiangsu) Pharmaceutical Co., Ltd., priority 2015, dated 2019)
# pIC50: −log10 of the molar value.
# Tested on: STAT3 phosphorylation in NCI-H1975 cells
# Experiment: Cellular pSTAT3 assay in NCI-H1975 cells
# Format: cell-based
# Settings: Homo sapiens, 2 hours with compound
# Procedure: NCI-H1975 cells were plated onto Costar #3701 96 or 384 well tissue-culture treated plates at 5,000 cells/well in 30 uL medium (RPMI, 10% FBS, supplemented with L-glutamine) and incubated overnight at 37° C. in 5% CO2. Phospho STAT3 signal was quantitated utilizing Cell Signaling Technology #7146B Pathscan […] STAT3 antibody pair kit, following manufacturer's instructions.
# Cells were dosed with compound and incubated at 37° C. in 5% CO2 for 2 hours, after which medium and compound were aspirated and cells lysed with 35 uL cold 1×Cell Signaling Lysis buffer and chilled at 4° C. for 1-2 hours. Lysate was incubated on STAT3 capture plates at 4° C. overnight, washed 3× with Tris-Buffered Saline with 0.05% Tween® 20 (TBST), then […] STAT3 detection antibody was applied for 2 hours. Following washing with TBST (3×), HRP-secondary antibody was applied for 2 hours. After additional washing, signal was detected using TMB and Stop solution and read at 450 nm using Tecan Infinite M100.
row,SMILES,pIC50
1,"CCOc1nn(C)cc1Nc1ncc(C)c(-c2c[nH]c3c(NC(=O)[C@@H](C)N4CCN(C)C[C@H]4C)cccc23)n1 [Example 23, (2R)-2-[(2R)-2,4-dimethylpiperazin-1-yl]-N-(3-{2-[(3-ethoxy-1-methyl-1H-pyrazol-4-yl)amino]-5-methylpyrimidin-4-yl}-1H-indol-7-yl)propanamide]",6.39
2,"CCOc1nn(C)cc1Nc1ncc(C)c(-c2c[nH]c3c(NC(=O)[C@@H](C)N4CCN(C)[C@H](C)C4)cccc23)n1 [Example 24, (2R)-2-[(3R)-3,4-dimethylpiperazin-1-yl]-N-(3-{2-[(3-ethoxy-1-methyl-1H-pyrazol-4-yl)amino]-5-methylpyrimidin-4-yl}-1H-indol-7-yl)propanamide]",6.43
3,COc1nn(C)cc1Nc1ncc(F)c(-c2c[nH]c3c(NC(=O)[C@@H](C)N4CCN(C)CC4)cccc23)n1 [Example 25],6.94
4,"COc1nn(C)cc1Nc1nccc(-c2c[nH]c3c(NC(=O)[C@@H](C)N4CCN(C)[C@@H](C)C4)cccc23)n1 [Example 26, (2R)-2-[(3S)-3,4-dimethylpiperazin-1-yl]-N-(3-{2-[(3-methoxy-1-methyl-1H-pyrazol-4-yl)amino]pyrimidin-4-yl}-1H-indol-7-yl)propanamide]",6.59
5,"COCCN1CCN([C@H](C)C(=O)Nc2cccc3c(-c4ccnc(Nc5cn(C)nc5OC)n4)c[nH]c23)CC1 [Example 27, (2R)-2-[4-(2-methoxyethyl)piperazin-1-yl]-N-(3-{2-[(3-methoxy-1-methyl-1H-pyrazol-4-yl)amino]pyrimidin-4-yl}-1H-indol-7-yl)propanamide]",6.22
6,"CCN1CCN([C@H](C)C(=O)Nc2cccc3c(-c4ccnc(Nc5cn(C)nc5OC)n4)c[nH]c23)CC1 [Example 28, (2R)-2-(4-ethylpiperazin-1-yl)-N-(3-{2-[(3-methoxy-1-methyl-1H-pyrazol-4-yl)amino]pyrimidin-4-yl}-1H-indol-7-yl)propanamide]",7.00
7,"COc1nn(C)cc1Nc1nccc(-c2c[nH]c3c(NC(=O)[C@@H](C)N4CCN(C)C[C@H]4C)cccc23)n1 [Example 29, (2R)-2-[(2R)-2,4-dimethylpiperazin-1-yl]-N-(3-{2-[(3-methoxy-1-methyl-1H-pyrazol-4-yl)amino]pyrimidin-4-yl}-1H-indol-7-yl)propanamide]",6.64
8,"COc1nn(C)cc1Nc1nccc(-c2c[nH]c3c(NC(=O)[C@@H](C)N4CCN(C)[C@H](C)C4)cccc23)n1 [Example 30, (2R)-2-[(3R)-3,4-dimethylpiperazin-1-yl]-N-(3-{2-[(3-methoxy-1-methyl-1H-pyrazol-4-yl)amino]pyrimidin-4-yl}-1H-indol-7-yl)propanamide]",6.44
9,"CCOc1nn(C)cc1Nc1ncc(C)c(-c2c[nH]c3c(NC(=O)[C@@H](C)N4CCN(C)[C@@H](C)C4)cccc23)n1 [Example 31a, (2R)-2-[(3S)-3,4-dimethylpiperazin-1-yl]-N-(3-{2-[(3-ethoxy-1-methyl-1H-pyrazol-4-yl)amino]-5-methylpyrimidin-4-yl}-1H-indol-7-yl)propanamide]",6.82
10,"CCOc1nn(C)cc1Nc1ncc(C)c(-c2c[nH]c3c(NC(=O)[C@H](C)N4CCN(C)[C@@H](C)C4)cccc23)n1 [Example 31b, (2S)-2-[(3S)-3,4-dimethylpiperazin-1-yl]-N-(3-{2-[(3-ethoxy-1-methyl-1H-pyrazol-4-yl)amino]-5-methylpyrimidin-4-yl}-1H-indol-7-yl)propanamide]",6.48
11,"COc1nn(C)cc1Nc1ncc(C)c(-c2c[nH]c3c(NC(=O)[C@H](C)N4CCN(C)CC4)cccc23)n1 [Example 33, (2S)-N-{3-[2-[(3-methoxy-1-methyl-1H-pyrazol-4-yl)amino]-5-methylpyrimidin-4-yl}-1H-indol-7-yl)-2-(4-methylpiperaizn-1-yl)propanamide]",6.51
12,"COc1nn(C)cc1Nc1ncc(C)c(-c2c[nH]c3c(NC(=O)[C@@H](C)N4CCN(C)CC4)cccc23)n1 [Example 34, (2R)-N-(3-{2-[(3-Methoxy-1-methyl-1H-pyrazol-4-yl)amino]-5-methylpyrimidin-4-yl}-1H-indol-7-yl)-2-(4-methylpiperazin-1-yl)propanamide]",6.89
13,"CCOc1nn(C)cc1Nc1ncc(C)c(-c2c[nH]c3c(NC(=O)[C@@H](C)N4CCN(C)CC4)cccc23)n1 [Example 35, (2R)-N-(3-{2-[(3-ethoxy-1-methyl-1H-pyrazol-4-yl)amino]-5-methylpyrimidin-4-yl}-1H-indol-7-yl)-2-(4-methylpiperazin-1-yl)propanamide]",6.82
14,"COc1nn(C)cc1Nc1ncc(Cl)c(-c2c[nH]c3c(NC(=O)[C@@H](C)N4CCN(C)CC4)cccc23)n1 [Example 36, (2R)-N-(3-{5-chloro-2-[(3-methoxy-1-methyl-1H-pyrazol-4-yl)amino]pyrimidin-4-yl}-1H-indol-7-yl)-2-(4-methylpiperazin-1-yl)propanamide]",7.24
15,"COc1nn(C)cc1Nc1ncc(Br)c(-c2c[nH]c3c(NC(=O)[C@@H](C)N4CCN(C)CC4)cccc23)n1 [Example 37, (2R)-N-(3-{5-bromo-2-[(3-methoxy-1-methyl-1H-pyrazol-4-yl)amino]pyrimidin-4-yl}-1H-indol-7-yl)-2-(4-methylpiperazin-1-yl)propanamide]",7.03
16,"COc1nn(C)cc1Nc1ncc(C)c(-c2c[nH]c3c(NC(=O)[C@@H](C)N4CCN(C)C[C@H]4C)cccc23)n1 [Example 38, (2R)-2-[(2R)-2,4-dimethylpiperazin-1-yl]-N-(3-{2-[(3-methoxy-1-methyl-1H-pyrazol-4-yl)amino]-5-methylpyrimidin-4-yl}-1H-indol-7-yl)propanamide]",6.97
17,"CCOc1nn(C)cc1Nc1ncc(F)c(-c2c[nH]c3c(NC(=O)[C@@H](C)N4CCN(C)CC4)cccc23)n1 [Example 39, (2R)-N-(3-{2-[(3-ethoxy-1-methyl-1H-pyrazol-4-yl)amino]-5-fluoropyrimidin-4-yl}-1H-indol-7-yl)-2-(4-methylpiperazin-1-yl)propanamide]",6.72
18,"CCOc1nn(C)cc1Nc1ncc(Cl)c(-c2c[nH]c3c(NC(=O)[C@@H](C)N4CCN(C)CC4)cccc23)n1 [Example 40, (2R)-N-(3-{5-chloro-2-[(3-ethoxy-1-methyl-1H-pyrazol-4-yl)amino]pyrimidin-4-yl}-1H-indol-7-yl)-2-(4-methylpiperazin-1-yl)propanamide]",6.80
19,"Cc1cnc(Nc2cn(C)nc2C)nc1-c1c[nH]c2c(NC(=O)[C@@H](C)N3CCN(C)CC3)cccc12 [Example 41, (2R)-N-(3-{2-[(1,3-dimethyl-1H-pyrazol-4-yl)amino]-5-methylpyrimidin-4-yl}-1H-indol-7-yl)-2-(4-methylpiperazin-1-yl)propanamide]",7.03
20,"Cc1cnc(Nc2cn(C)nc2C)nc1-c1c[nH]c2c(NC(=O)[C@H](C)N3CCN(C)CC3)cccc12 [Example 42, (2S)-N-(3-{2-[(1,3-dimethyl-1H-pyrazol-4-yl)amino]-5-methylpyrimidin-4-yl}-1H-indol-7-yl)-2-(4-methylpiperazin-1-yl)propanamide]",6.76
21,"CC[C@@H](C(=O)Nc1cccc2c(-c3nc(Nc4cn(C)nc4OC)ncc3C)c[nH]c12)N1CCN(C)CC1 [Example 43, (2S)-N-(3-{2-[(3-Methoxy-1-methyl-1H-pyrazol-4-yl)amino]-5-methylpyrimidin-4-yl}-1H-indol-7-yl)-2-(4-methylpiperazin-1-yl)butanamide]",6.75
22,"CC[C@H](C(=O)Nc1cccc2c(-c3nc(Nc4cn(C)nc4OC)ncc3C)c[nH]c12)N1CCN(C)CC1 [Example 44, (2R)-N-(3-{2-[(3-Methoxy-1-methyl-1H-pyrazol-4-yl)amino]-5-methylpyrimidin-4-yl}-1H-indol-7-yl)-2-(4-methylpiperazin-1-yl)butanamide]",7.24
23,"COC[C@H](C(=O)Nc1cccc2c(-c3nc(Nc4cn(C)nc4OC)ncc3C)c[nH]c12)N1CCN(C)CC1 [Example 45, (2R)-3-methoxy-N-(3-{2-[(3-methoxy-1-methyl-1H-pyrazol-4-yl)amino]-5-methylpyrimidin-4-yl}-1H-indol-7-yl)-2-(4-methylpiperazin-1-yl)propanamide]",7.22
24,"COC[C@@H](C(=O)Nc1cccc2c(-c3nc(Nc4cn(C)nc4OC)ncc3C)c[nH]c12)N1CCN(C)CC1 [Example 46, (2S)-3-methoxy-N-(3-{2-[(3-methoxy-1-methyl-1H-pyrazol-4-yl)amino]-5-methylpyrimidin-4-yl}-1H-indol-7-yl)-2-(4-methylpiperazin-1-yl)propanamide]",5.89
25,"CC[C@H](C(=O)Nc1cccc2c(-c3ccnc(Nc4cn(C)nc4OC)n3)c[nH]c12)N1CCN(C)CC1 [Example 47, (2R)-N-(3-{2-[(3-Methoxy-1-methyl-1H-pyrazol-4-yl)amino]pyrimidin-4-yl}-1H-indol-7-yl)-2-(4-methylpiperazin-1-yl)butanamide]",6.87
26,"CC[C@@H](C(=O)Nc1cccc2c(-c3ccnc(Nc4cn(C)nc4OC)n3)c[nH]c12)N1CCN(C)CC1 [Example 48, (2S)-N-(3-{2-[(3-Methoxy-1-methyl-1H-pyrazol-4-yl)amino]pyrimidin-4-yl}-1H-indol-7-yl)-2-(4-methylpiperazin-1-yl)butanamide]",6.06
27,"CC[C@H](C(=O)Nc1cccc2c(-c3nc(Nc4cn(C)nc4C)ncc3F)c[nH]c12)N1CCN(C)CC1 [Example 49, (2R)-N-(3-{2-[(1,3-dimethyl-1H-pyrazol-4-yl)amino]-5-fluoropyrimidin-4-yl}-1H-indol-7-yl)-2-(4-methylpiperazin-1-yl)butanamide]",7.12
